Source: paper PMC8734228 (Cancer discovery, 2021)
Read-outs that look alike come from different tables or passages of the source.

Assays:
FLC1 cells = assay: Role of ROS: survival with or without N-acetyl cysteine 10mM; format: cell-based, human; details: NAC 10mM, 72 h
[1] = test system: eIF4F sensitive proteins in FLC6 cells; assay: Immunoblot of eIF4F sensitive protein levels; format: cell-based, human
FLC1 PDX = assay: In vivo drug testing in mice bearing PDX FLC1
[2] = test system: cells dissociated directly from patient tumors (FLC.T6-T11); assay: Direct from patient in vitro screening; format: cell-based, human; details: for Sensitivity of cells tested directly from patients: 10μM-10nM, 72h, Cell Titer Glo; for Drug sensitivity of FLC.T6 compared with derived PDX FLC6 (EC50): cells direct from patient tumor vs cells from its PDX
[3] = test system: primary human hepatocytes (PHH); assay: Validation counter-screen on primary human hepatocytes; details: 72 h; for Effect on PHH (dose response, normalized percent survival): up to 10 μM; for EC50: read-out: EC50 PHH
FLC PDX cells = assay: Validation screen on cells dissociated from FLC PDX; format: cell-based, human; details: for EC50: read-out: EC50 against the PDX cells; for Efficacy ranking in the screen: ranked by average −log10EC50 for FLC1-5 minus −log10EC50 for PHH
FLC5 cells = assay: Anchor screen, synergy assay; format: cell-based, human; details: FLC5, ZIP, Bliss and HSA scores
AURKA = details: read-out: IC50 AURKA; cited from earlier work
PAK 1 = details: read-out: IC50 PAK 1; cited from earlier work
PAK 2 = details: read-out: IC50 PAK 2; cited from earlier work
PAK 3 = details: read-out: IC50 PAK 3; cited from earlier work
FLC1 PDX cells = assay: Validation screen, 11-point dose response, 72 h, Cell Titer Glo; format: cell-based, human; details: read-out: EC50 FLC
FLC2 PDX cells = assay: as above; format: cell-based, human; details: read-out: EC50 FLC
FLC3 PDX cells = assay: as above; format: cell-based, human; details: read-out: EC50 FLC
FLC4 PDX cells = assay: as above; format: cell-based, human; details: read-out: EC50 FLC
FLC5 PDX cells = assay: as above; format: cell-based, human; details: read-out: EC50 FLC
PKA = details: read-out: Ki PKA; cited from earlier work
PKG = details: read-out: Ki against other kinases: PKG, cited from earlier work
PKC = details: read-out: Ki against other kinases: PKC; printed as PKG/PKC; cited from earlier work
FLC patients = details: two FLC patients, clinical trial ref 10; cited from earlier work
Akt1 = details: read-out: Ki against other kinases: Akt1; cited from earlier work
Akt2 = details: read-out: Ki against other kinases: Akt2; cited from earlier work
Akt3 = details: read-out: Ki against other kinases: Akt3; cited from earlier work
p70s6k = details: read-out: Ki against other kinases: p70s6k; cited from earlier work
Rock1 = details: read-out: Ki against other kinases: Rock1; cited from earlier work
Rock2 = details: read-out: Ki against other kinases: Rock2; cited from earlier work
[4] = napabucasin 10mg/kg IP, 5 days on 2 days off, FLC1
[5] = napabucasin 10mg/kg IP, 14 days
[6] = napabucasin 10mg/kg, after 14 days

What does the source list for CC(=O)c1cc2c(o1)C(=O)c1ccccc1C2=O [napabucasin]?
Effect of N-acetyl cysteine (NAC) on the toxicity of the drug (FLC1 cells): partially attenuated; c-Myc levels ([1]; 1 μM napabucasin, FLC cells, GAPDH control): dramatic decrease; Levels of MDM2, Bcl-xL, MCL1 and Cyclin D1 ([1]; napabucasin 1μM or 2μM, FLC6 cells): lowered the levels; Tumor growth at 7 days (FLC1 PDX; [4]): 44%; Tumor growth at 14 days (FLC1 PDX; [4]): 52%; Average weight loss (FLC1 PDX; [5]): 6.7%; Ratio of tumor volume:mouse weight (FLC1 PDX; [5]): stable or decreased; Mitotic figures, Ki67 and pHH3 positive cells in tumors (FLC1 PDX; [6]): decrease; TUNEL positive cells in tumors (FLC1 PDX; [6]): small increase; Sensitivity of cells tested directly from patients [2]: sensitive; Drug sensitivity of FLC.T6 compared with derived PDX FLC6 (EC50) [2]: correlated well; Effect on PHH (dose response, normalized percent survival) [3]: no detectable effect

Which EC50 (FLC PDX cells; Homo sapiens, 72 h) does the source give for Cc1cc(Nc2cc(N3CCN(C)CC3)nc(/C=C/c3ccccc3)n2)n[nH]1 [ENMD-2076] here?
The EC50 was over 5000 nM.

What about the “Efficacy ranking in the screen” value (FLC PDX cells) of the same molecule?
The value was 123.

What about the “Synergy with A1331852” value (FLC5 cells) of the same molecule?
The value was “All drugs, apart from ENMD-2076 and uprosertib, showed some synergy”.

With CCn1c(=O)c(-c2ccc(-c3cncs3)cc2Cl)cc2cnc(Nc3ccc(N4CCN(C)CC4)cc3)nc21 [FRAX567] as the molecule, how does the “Effect on FLC PDX cells in vitro (dose response, normalized percent survival)” value (FLC PDX cells; 10nM-10μM, 72 h, FLC1-6) read?
The value was “consistent inhibition against all PDX”.

What about the “Efficacy ranking in the screen” value (FLC PDX cells) of the same molecule?
Its value is 12.

What about the IC50 (PAK 1) of the same molecule?
Its IC50 is 8 nM.

What about the IC50 (PAK 3) of the same molecule?
Its IC50 is 19 nM.

Which results are given for O=S(=O)(NCCNC/C=C/c1ccc(Br)cc1)c1cccc2cnccc12 [H89]?
EC50 (FLC1 PDX cells; FLC1, 72 h): 5820 nM; EC50 (FLC2 PDX cells; FLC2, 72 h): 23900 nM; EC50 (FLC3 PDX cells; FLC3, 72 h): 18200 nM; EC50 (FLC4 PDX cells; FLC4, 72 h): 20900 nM; EC50 (FLC5 PDX cells; FLC5, 72 h): 9490 nM; Therapeutic window for FLC over PHH (FLC PDX cells; FLC PDX cells compared with PHH): no therapeutic window; Ki (PKA): 48 nM; Ki (PKG): 480 nM; EC50 [3]: 41500 nM

What does the source list for Aurora Kinase Inhibitor I?
EC50 (FLC PDX cells; 72 h): 1000 to 4000 nM; IC50 (AURKA): 3.4 nM

With CCCCCCOC(=O)[C@]1(O)C[C@@H]2O[C@@]1(C)n1c3ccccc3c3c4c(c5c6ccccc6n2c5c31)C(=O)NC4 [KT5720] as the molecule, how does the EC50 (FLC1 PDX cells; FLC1, 72 h) read?
Its EC50 is 1610 nM.

And the EC50 (FLC2 PDX cells; FLC2, 72 h)?
The EC50 was 2140 nM.

And the EC50 (FLC3 PDX cells; FLC3, 72 h)?
Its EC50 is 2710 nM.

What about the EC50 (FLC4 PDX cells; FLC4, 72 h) of the same molecule?
Its EC50 is 1480 nM.

What about the EC50 (FLC5 PDX cells; FLC5, 72 h) of the same molecule?
The EC50 was 3870 nM.

And the Ki (PKA)?
Its Ki is 60 nM.

And the Ki (PKG; printed as PKG/PKC)?
Its Ki is over 2000 nM.

And the Ki (PKC)?
The Ki was over 2000 nM.

And the EC50 [3]?
The EC50 was over 10000 nM.

Which results are given for CN1CC[C@H](c2c(O)cc(O)c3c(=O)cc(-c4ccccc4Cl)oc23)[C@H](O)C1 [flavopiridol]?
Sensitivity of cells tested directly from patients [2]: some sensitivity; Duration of stable disease (FLC patients): 17 months; Effect on PHH (dose response, normalized percent survival) [3]: toxic

Which EC50 (FLC1 PDX cells; Homo sapiens, 72 h) does the source give for NC[C@@](O)(c1ccc(Cl)cc1)c1ccc(-c2cn[nH]c2)cc1 [AT13148] here?
Its EC50 is 39 nM.

What about the EC50 (FLC2 PDX cells; Homo sapiens, 72 h) of the same molecule?
Its EC50 is 6140 nM.

What about the EC50 (FLC3 PDX cells; Homo sapiens, 72 h) of the same molecule?
Its EC50 is 590 nM.

What about the EC50 (FLC4 PDX cells; Homo sapiens, 72 h) of the same molecule?
The EC50 was 4290 nM.

What about the EC50 (FLC5 PDX cells; Homo sapiens, 72 h) of the same molecule?
The EC50 was 96 nM.

What about the “Synergy with A1331852” value (FLC5 cells) of the same molecule?
The value was “some synergy”.

And the “Drug sensitivity of FLC.T6 compared with derived PDX FLC6 (EC50)” value [2]?
The value was “outliers”.

What about the Ki (PKA) of the same molecule?
Its Ki is 3 nM.

And the Ki (Akt1)?
The Ki was 38 nM.

What about the Ki (Akt2) of the same molecule?
Its Ki is 402 nM.

What about the Ki (Akt3) of the same molecule?
Its Ki is 50 nM.

What about the Ki (p70s6k) of the same molecule?
Its Ki is 8 nM.

And the Ki (Rock1)?
Its Ki is 6 nM.

What about the Ki (Rock2) of the same molecule?
The Ki was 4 nM.

What about the EC50 ([3]; Homo sapiens, Hepatocyte) of the same molecule?
The EC50 was 4050 nM.
